Measurements taken from patent EP0208962B1, “Combination preparations from thrombocyte aggregation inhibitors, and their use” (HOECHST AKTIENGESELLSCHAFT, priority 1985, dated 1987).
“Also recorded” adds a separate entry of the source.

Assays:
Humanthrombozyten [1] = experiment: Induced aggregation of human platelets in vitro (Method 1, platelet-rich plasma, Born aggregometer); format: cell-based; details: result in words; Tilsuprost compared with Prostacyclin
Excerpt: Methode 1 - Induzierte Aggregation von Humanthrombozyten in vitro
Gesund erscheinenden männlichen und weiblichen Freiwilligen, die im vorangegangenen Zeitraum von 10 Tagen keine Medikamente eingenommen haben, wird durch vorsichtige Kanülierung der Antekubitalvene Blut entnommen, das sofort mit Natriumzitrat (ad 0,38%) stabilisiert wird. Durch 15minütiges Zentrifugieren bei 140 x g erhält man im Überstand plättchenreiches Plasma (PRP), dessen Thrombozytengehalt im Bereich 2,5 - 3,5·10⁺⁸ /ml (Coulter Counter) liegen soll. Die Plättchenaggregation wird optisch durch Messung der Lichttransmission im Born'schen Aggregometer verfolgt. Das Gesamtvolumen des Testansatzes beträgt 0,25 ml. Die Vorinkubationszeit mit dem Prüfpräparat beträgt 10 min bei 37°C, die Aggregationsinduktion erfolgt sodann mit 2 · 10⁻⁴ mol/l Arachidonsäure oder 1,7 µg/ml Kollagen. Das Prüfpräparat wird an fünf verschiedenen Spendern getestet. Aus den jeweiligen maximalen Aggregationsamplituden werden Dosis-Wirkungskurven erstellt und graphisch die arithmetisch gemittelten ED₅₀ (mol/l)-Werte bestimmt. Die Messungen erfolgen im Zeitraum von 1-6 Stunden nach Blutentnahme.

Humanthrombozyten [2] = experiment: Cyclo AMP determination in human platelets (Method 3, 3H-adenine labelling); format: cell-based; details: result in words
Description: Methode 3 - Cyclo AMP-Bestimmung in Humanthrombozyten
Die Methode folgt in allen Einzelheiten der Vorschrift in Nature (London) 292 (1981) 364: Statt Kaninchenthrombozyten wurde jedoch menschliches Thrombozytenkonzentrat mit ³H-Adenin bei 20°C für 90 min inkubiert. Das überschüssige Adenin wird, wie in Nature beschrieben, entfernt, die Wirkstoffe (s. Tab. 2) zugesetzt und erneut 5 min (37°C) inkubiert. Das gebildete ³H-cyclo AMP wird in der bekannten Weise abgetrennt und durch Radioaktivitätsmessung quantifiziert.

| SMILES | Hemmstoffe der Aggregation von Humanthrombozyten (Humanthrombozyten [1]) | cyclo AMP-Stimulierung in Humanthrombozyten (Humanthrombozyten [2]) |
| --- | --- | --- |
| CCCCC[C@H](O)/C=C/[C@@H]1[C@H]2C/C(=C/CCCC(=O)O)O[C@H]2C[C@H]1O [Prostacyclin, reference compound] | äquipotent | – |
| CCCCCC(O)C=CC1C(O)CC2N=C(SCCCCC(=O)O)CC21 (stereo not drawn) [Tilsuprost] | äquipotent | keine signifikante Stimulierung; also recorded: keine signifikante stimulierende Wirkung |
